Consider eleven compounds from ChEMBL document CHEMBL1201862, “PubChem BioAssay data set” (2004).

Some test systems named below: MCF7; K562; SK-OV-3; DU-145; SN12C; LOX IMVI; SF-295; CCRF-CEM; HL-60; MOLT-4; PC-3; NCI-H522; SNB-19; HCT-116; SK-MEL-5; KM12; A498; HCT-15; 786-0; SNB-75.
What all share (assay): NCI-60 cell line screen, 48 h

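Where inhibition never reached the appropriate level, the endpoint shown equals the highest concentration tested. Otherwise, values were interpolated linearly from a five-concentration, 48-hour dose response in 96-well plates. The concentration for 50% growth inhibition is given as GI50.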 Active and inactive are the calls of the source. Rule as the data show it: active = GI50 up to about 1.1 µM and inactive = higher.

For `COC(=O)[C@H]1C=NN[C@@H]1C(=O)N1[C@H]2CC3CC[C@@]2(CS1(=O)=O)C3(C)C`, the GI50 in the test on MCF7, in the test on K562, with SK-OV-3, in the test on DU-145, with SN12C and with LOX IMVI was > 100 µM (inactive) throughout. Moreover, the GI50 in the test on SF-295, in the test on CCRF-CEM, in the test with HL-60, with MOLT-4, in the test with PC-3 and with NCI-H522 was > 100 µM (inactive) each time. Besides, the GI50 with SNB-19 was > 100 µM (inactive); with HCT-116, > 100 µM (inactive); in the test on SK-MEL-5, > 100 µM (inactive); in the test on KM12, > 100 µM (inactive); in the test on A498, > 100 µM (inactive); in the test on HCT-15, more than 100 µM.
Consider `O=C(O)c1c(CC(Cc2ccc3c(c2)CCC3)C(=O)O)ccc2c1CCC2` (stereo unspecified), for which the GI50 in the test on MCF7, in the test with K562, in the test with DU-145, with SN12C, in the test on LOX IMVI and with 786-0 was > 100 µM (inactive) throughout. The GI50 in the test with SF-295, with CCRF-CEM, with HL-60, in the test on MOLT-4, in the test with PC-3 and in the test on NCI-H522 was > 100 µM (inactive) throughout. Further, the GI50 in the test on SNB-19 was > 100 µM (inactive); with HCT-116, > 100 µM (inactive); with SK-MEL-5 it was > 100 µM (inactive); in the test on KM12 it was > 100 µM (inactive); with A498, > 100 µM (inactive); with HCT-15 it was more than 100 µM.
For the compound `CC(C)(C)OC(=O)NC(Cc1ccc([N+](=O)[O-])cc1)C(=O)NC(CCCCNC(=O)OCc1ccccc1)C(=O)ON1C(=O)CCC1=O` (stereo unspecified), the GI50 in the test on MCF7 was > 100 µM (inactive); in the test with K562, 14.4 µM (inactive); in the test with SNB-75, > 100 µM (inactive); in the test on SK-OV-3, > 100 µM (inactive); in the test on DU-145 it was > 100 µM (inactive); in the test with SN12C it was 70.6 µM (inactive). Moreover, the GI50 in the test on LOX IMVI is 28.8 µM (inactive); in the test with 786-0, > 100 µM (inactive); in the test on SF-295, 40 µM (inactive); in the test with HL-60 it was 78.3 µM (inactive); with MOLT-4, 57.9 µM (inactive); in the test with PC-3, 52.5 µM (inactive). The GI50 in the test with NCI-H522 was > 100 µM (inactive); in the test with SNB-19 it was > 100 µM (inactive); in the test with HCT-116, 73.5 µM (inactive); in the test on SK-MEL-5, > 100 µM (inactive); with KM12, > 100 µM (inactive); in the test with A498 it was > 100 µM (inactive). This compound also had a GI50 with HCT-15 of more than 100 µM.
With `COc1cc(Nc2cc(Cl)cc(Cl)c2)nc(N)n1`, the GI50 in the test on MCF7 is 27.2 µM (inactive); with K562 it was 30.7 µM (inactive); in the test with SNB-75, 15.5 µM (inactive); in the test on SK-OV-3 it was 27.5 µM (inactive); in the test on DU-145, 18.8 µM (inactive); in the test on SN12C, 20.9 µM (inactive). Further, the GI50 is 16.3 µM (inactive) with LOX IMVI; 17.4 µM (inactive) in the test on 786-0; 18.6 µM (inactive) with SF-295; 17.6 µM (inactive) in the test on CCRF-CEM; 16.6 µM (inactive) in the test with MOLT-4; 20.8 µM (inactive) in the test on PC-3. Besides, the GI50 was 20.4 µM (inactive) with NCI-H522; 22.9 µM (inactive) in the test on SNB-19; 16.9 µM (inactive) with HCT-116; 15.3 µM (inactive) in the test on SK-MEL-5; 17.1 µM (inactive) in the test on KM12; 21.9 µM (inactive) in the test with A498. Moreover, the GI50 with HCT-15 is 17.1 µM.
In the case of `CC(=O)OCC1(CNc2nc(N)ncc2C#N)CC(CCc2ccccc2)C1` (stereo unspecified), the GI50 in the test on MCF7 is 12 µM (inactive); in the test with K562, 2.2 µM (inactive); in the test on SNB-75, 27.4 µM (inactive); in the test on DU-145, 32.1 µM (inactive); in the test on SN12C it was > 100 µM (inactive); with LOX IMVI, 4.58 µM (inactive). Besides, the GI50 in the test on 786-0 is 40.4 µM (inactive); in the test with SF-295, 7.66 µM (inactive); in the test on CCRF-CEM it was 57 µM (inactive); in the test on HL-60, 3.66 µM (inactive); with MOLT-4 it was 2.89 µM (inactive); with PC-3, > 100 µM (inactive). Moreover, the GI50 is 20.2 µM (inactive) with NCI-H522; 5.43 µM (inactive) with HCT-116; 1.62 µM (inactive) in the test on SK-MEL-5; > 100 µM (inactive) in the test on KM12; 21.9 µM (inactive) in the test with A498; more than 100 µM in the test on HCT-15.
With `CC(Cc1ccc(Cl)cc1Cl)NO` (stereo unspecified), the GI50 is > 100 µM (inactive) with MCF7; 83.9 µM (inactive) in the test on K562; 94 µM (inactive) in the test on SNB-75; > 100 µM (inactive) with SK-OV-3; > 100 µM (inactive) in the test on DU-145; 92.7 µM (inactive) in the test with SN12C. The GI50 in the test with LOX IMVI was > 100 µM (inactive); with 786-0, > 100 µM (inactive); with SF-295, > 100 µM (inactive); with CCRF-CEM, > 100 µM (inactive); in the test on MOLT-4 it was 83.6 µM (inactive); with PC-3, > 100 µM (inactive). Moreover, the GI50 with NCI-H522 is 66.5 µM (inactive); in the test on SNB-19 it was > 100 µM (inactive); in the test on HCT-116 it was 83.6 µM (inactive); in the test on SK-MEL-5, 95.7 µM (inactive); in the test with KM12, > 100 µM (inactive); in the test with A498 it was > 100 µM (inactive). This compound gave a GI50 in the test with HCT-15 of more than 100 µM.
As for `CCOC(=O)/C(C(=O)Nc1ccc(Cl)cc1)=C(/N)N1CCOCC1`, the GI50 in the test with MCF7, in the test on K562, in the test on SNB-75, in the test on SK-OV-3, in the test on DU-145 and in the test on SN12C was > 100 µM (inactive) in each case. Further, the GI50 in the test with LOX IMVI, in the test with 786-0, with SF-295, in the test with CCRF-CEM, in the test on HL-60 and with MOLT-4 was > 100 µM (inactive) each time. In addition, the GI50 in the test with PC-3, in the test with NCI-H522, in the test with SNB-19, in the test on HCT-116, in the test with KM12 and with A498 was > 100 µM (inactive) throughout. In addition, the GI50 with HCT-15 is more than 100 µM.
On to `O=C(OC1C#CCSCC#C/C=C\1)c1ccc2c(c1)C(=O)c1ccccc1C2=O` (stereo unspecified), for which the GI50 in the test on MCF7 is 41.2 µM (inactive); in the test on K562, > 100 µM (inactive); in the test on SNB-75, 26.4 µM (inactive); in the test with SK-OV-3, 18.1 µM (inactive); with DU-145, > 100 µM (inactive); with SN12C it was > 100 µM (inactive). Also, the GI50 in the test with LOX IMVI was > 100 µM (inactive); with SF-295 it was 28 µM (inactive); in the test with CCRF-CEM, > 100 µM (inactive); with HL-60, > 100 µM (inactive); with MOLT-4 it was 81.7 µM (inactive); with PC-3, > 100 µM (inactive). The GI50 in the test with NCI-H522 was 23.8 µM (inactive); in the test with SNB-19, 23.6 µM (inactive); with HCT-116, 36.5 µM (inactive); in the test on SK-MEL-5, 87.1 µM (inactive); in the test with KM12, > 100 µM (inactive); in the test on A498, 33.3 µM (inactive). Also, the GI50 with HCT-15 was more than 100 µM.
As for `COc1cc(Nc2cnc3cc(F)c(F)cc3n2)cc(OC)c1OC`, the GI50 was > 100 µM (inactive) in the test on MCF7; > 100 µM (inactive) in the test on SNB-75; > 100 µM (inactive) in the test with SK-OV-3; > 100 µM (inactive) in the test with DU-145; > 100 µM (inactive) with SN12C; 40 µM (inactive) in the test on LOX IMVI. Besides, the GI50 was > 100 µM (inactive) in the test on 786-0; > 100 µM (inactive) with SF-295; > 100 µM (inactive) with CCRF-CEM; 24.9 µM (inactive) with HL-60; > 100 µM (inactive) with MOLT-4; > 100 µM (inactive) in the test with PC-3. Further, the GI50 is 67.1 µM (inactive) in the test on NCI-H522; > 100 µM (inactive) with SNB-19; > 100 µM (inactive) in the test with HCT-116; > 100 µM (inactive) in the test with SK-MEL-5; 69.3 µM (inactive) with KM12; > 100 µM (inactive) in the test on A498. In the test on HCT-15, this compound had a GI50 of more than 100 µM.
For `NCOC(=O)Cc1ccc(Br)cc1`, the GI50 in the test on MCF7, in the test with K562, in the test on SNB-75, in the test with SK-OV-3, in the test on DU-145 and in the test on SN12C was > 100 µM (inactive) throughout. The GI50 with LOX IMVI was > 100 µM (inactive); with 786-0, > 100 µM (inactive); with SF-295 it was > 100 µM (inactive); in the test with CCRF-CEM, 80 µM (inactive); in the test with HL-60, 42.3 µM (inactive); in the test with MOLT-4, 17.4 µM (inactive). Moreover, the GI50 in the test on PC-3, with NCI-H522, with SNB-19, in the test on HCT-116, in the test on SK-MEL-5 and in the test on A498 was > 100 µM (inactive) each time. Also, the GI50 with HCT-15 was more than 100 µM.
Turning to `COc1c2occc2c(N)c2ccc(=O)oc12`, the GI50 with MCF7 was > 100 µM (inactive); in the test with K562, > 100 µM (inactive); in the test with SNB-75 it was 17.2 µM (inactive); in the test with DU-145 it was > 100 µM (inactive); in the test with SN12C, > 100 µM (inactive); in the test on LOX IMVI, > 100 µM (inactive). Besides, the GI50 was > 100 µM (inactive) in the test with 786-0; > 100 µM (inactive) with SF-295; 93.5 µM (inactive) in the test on CCRF-CEM; 49.2 µM (inactive) in the test on HL-60; > 100 µM (inactive) with MOLT-4; > 100 µM (inactive) in the test with PC-3. Besides, the GI50 with NCI-H522 is 75 µM (inactive); in the test on SNB-19 it was > 100 µM (inactive); with HCT-116 it was > 100 µM (inactive); with SK-MEL-5 it was 35 µM (inactive); in the test on KM12, > 100 µM (inactive); in the test on A498, > 100 µM (inactive). The compound further had a GI50 in the test with HCT-15 of more than 100 µM.
